Data published in patent US20070122395A1, “Genetic and pharmacological regulation of antidepressant-sensitive biogenic amine transporters through PKG/p38 map kinase” (Vanderbilt University, priority 2005, published 2007).
Where two headings read alike, the source gives them in different places.

How the values were obtained:
hSERT variants = experiment: 5-HT transport regulation by phorbol ester in transfected HeLa cells, all variants; format: cell-based, human; settings: each hSERT variant; slightly greater for Thr4Ala, Lys605Asn, Pro621Ser
Experimental: (§1) Transfection and Transport Studies. HeLa cells, maintained at 37° C. in a 5% CO2 humidified incubator, were grown in complete medium (Dulbecco's Modified Eagle's Medium (DMEM, Invitrogen), 10% fetal bovine serum, 2 mM L-glutamine, 100 units/ml penicillin, and 100 μg/ml streptomycin).
(§2) Transport, Binding, Biotinylation and Phosphorylation Studies. […] To establish levels and biosynthetic progression of hSERT protein produced from mutant cDNAs, HeLa cells were plated in 6-well dishes at 500,000 cells per well and transfected 12 h later. Twenty four hours after transfection, whole cell detergent extracts were blotted for hSERT (mAb Technologies, Inc., 1:1000) using enhanced chemiluminescence (ECL, Amersham) detection.

hSERT [1] = target: T1, hSERT (Homo sapiens, UniProt P31645); experiment: [3H]5-HT transport (SERT uptake) assay in transfected HeLa cells; format: cell-based
T1 construct: The full-length cDNA encoding hSERT in the mammalian expression vector pcDNA3.1; expressed in transfected cells; host or cells: HeLa
T1 sequence (P31645 whole entry): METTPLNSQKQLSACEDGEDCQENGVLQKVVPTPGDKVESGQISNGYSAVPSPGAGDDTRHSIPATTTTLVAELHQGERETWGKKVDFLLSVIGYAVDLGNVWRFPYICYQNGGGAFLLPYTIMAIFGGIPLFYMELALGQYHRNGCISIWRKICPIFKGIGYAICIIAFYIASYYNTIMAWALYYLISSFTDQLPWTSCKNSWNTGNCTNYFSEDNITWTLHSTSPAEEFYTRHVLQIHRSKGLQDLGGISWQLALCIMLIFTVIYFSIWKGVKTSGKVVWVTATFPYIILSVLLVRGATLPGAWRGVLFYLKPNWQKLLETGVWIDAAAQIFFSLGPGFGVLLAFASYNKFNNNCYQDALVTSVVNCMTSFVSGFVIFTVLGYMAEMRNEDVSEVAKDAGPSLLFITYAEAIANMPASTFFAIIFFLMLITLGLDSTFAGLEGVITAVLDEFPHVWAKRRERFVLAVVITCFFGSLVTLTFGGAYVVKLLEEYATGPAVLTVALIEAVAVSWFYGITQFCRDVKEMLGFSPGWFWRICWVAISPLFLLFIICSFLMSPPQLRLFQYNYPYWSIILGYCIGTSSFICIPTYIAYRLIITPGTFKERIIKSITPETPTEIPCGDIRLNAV
Experimental: as §1, §2

SERT in RBL-2H3 cells = target: T2, SERT in RBL-2H3 cells (Rattus norvegicus, UniProt P31652); experiment: [125I]RTI-55 binding to intact RBL-2H3 cells; format: cell-based
T2 construct: As with rat SERT expressed by RBL-2H3 cells; host or cells: RBL-2H3 cells (intact cells, 4° C.)
T2 sequence (P31652 whole entry): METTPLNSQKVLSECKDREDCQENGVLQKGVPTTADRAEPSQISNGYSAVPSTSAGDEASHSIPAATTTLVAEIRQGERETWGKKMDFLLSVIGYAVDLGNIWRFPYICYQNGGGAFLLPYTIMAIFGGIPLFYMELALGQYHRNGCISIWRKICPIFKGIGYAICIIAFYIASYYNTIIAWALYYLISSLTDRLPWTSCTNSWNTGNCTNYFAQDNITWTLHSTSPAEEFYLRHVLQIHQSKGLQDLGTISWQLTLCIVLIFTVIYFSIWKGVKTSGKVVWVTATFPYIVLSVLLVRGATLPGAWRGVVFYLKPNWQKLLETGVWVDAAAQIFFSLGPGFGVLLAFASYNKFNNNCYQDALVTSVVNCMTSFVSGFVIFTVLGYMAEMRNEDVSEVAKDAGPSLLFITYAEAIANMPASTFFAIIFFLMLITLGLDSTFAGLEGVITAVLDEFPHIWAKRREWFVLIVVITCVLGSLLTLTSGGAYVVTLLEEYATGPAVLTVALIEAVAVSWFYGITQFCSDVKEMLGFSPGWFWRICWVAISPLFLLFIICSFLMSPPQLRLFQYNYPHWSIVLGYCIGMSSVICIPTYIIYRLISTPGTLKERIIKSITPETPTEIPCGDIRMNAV
From the text: Binding was terminated by two rapid washes with ice-cold PBS/CM.

[2] = system: rat SERT expressed by RBL-2H3 cells; experiment: [3H]5-HT transport assay in RBL-2H3 cells; format: cell-based; settings: for blockade of NECA-induced 5-HT uptake: ODQ 10 μm, NECA 1 μm; for blockade of 8-Br-cGMP stimulation of SERT: data not shown
[3] = system: lymphocytes homozygous for the Gly variant (hSERT Gly56); experiment: 5-HT uptake in genotyped lymphocyte lines; format: cell-based, human; settings: H8 versus 8BrcGMP; SB203580 versus anisomycin
From the text: Genotyping and Lymphocyte Studies. Lymphocyte lines were derived from autistic pedigrees recruited by Susan E. Folstein (Johns Hopkins Univ), from the Autism Genetics Resource Exchange (AGRE) collection (www.agre.org/), and from the NIMH Human Genetics Initiative Repository (www.nimhgenetics.org/) at Rutgers University. DNA from lymphoblastoid cell lines was genotyped via TaqMan-based allelic discrimination, using an Applied Biosystems (Foster City, Calif.) Assay-by-Design and independently confirmed by PCR and direct sequence analysis. […] Lymphocyte were pelleted at 1500 rpm, 5 min and washed with KRH assay buffer. A total of 1×10^6 cells in triplicate were pre-warmed (37° C.) in a shaking water bath (10 min) in 12×75 polypropylene tubes in KRH buffer containing 100 μM pargyline and 100 μM ascorbic acid+/−modifiers.

hSERT [4] = target: T1, hSERT; experiment: [125I]RTI-55 binding to intact transfected HeLa cells (surface and total SERT); format: cell-based; settings: paroxetine as displacer; data not shown
[5] = target: T3, native SERT in RN46A cells (Rattus norvegicus, UniProt P31652); experiment: [3H]5-HT transport assay in RN46A cells; format: cell-based; settings: DT-2 1.0 μm; for blockade of anisomycin-stimulated 5-HT uptake: RN46A, SB203580, ODQ 10 μm, H8 0.1 μm
T3 construct: derived from rat E13 raphenucleus, that expresses native SERT; endogenous in cells; host or cells: RN46A cells
T3 sequence (P31652 whole entry): as above

[6] = system: five hSERT variants that failed to elicit uptake increases; experiment: [125I]RTI-55 surface binding to intact transfected HeLa cells, non-responsive variants; format: cell-based, human; settings: H8
[7] = system: rat SERT expressed by RBL-2H3 cells; settings: Zhu et al., 2004a,b; cited from earlier work
[8] = pretreatment, then anisomycin 1 μm 10 min, SB compounds, curcumin, PD98059, ODQ 10 μm, H8 0.1 μm, DT-2 1.0 μm, fostriecin 5 nM, MTSET 10 mM, siRNA 100 nM 48 h

CCCCCCCCCCCCCC(=O)O[C@@H]1[C@@H](C)[C@@]2(O)[C@@H](C=C(CO)C[C@]3(O)C(=O)C(C)=C[C@@H]23)[C@@H]2C(C)(C)[C@]12OC(C)=O [β-PMA]
downregulation of 5-HT transport following β-PMA, relative to hSERT (hSERT variants): equal to or slightly greater | downregulation of 5-HT transport activity (hSERT [1]): ~40%

C[C@@](O)(/C=C/[C@H]1CC=CC(=O)O1)[C@@H](C[C@@H](O)\C=C/C=C\C=C\CO)OP(=O)(O)O [fostriecin]
SERT surface density (5-HT-displaceable [125I]RTI-55 binding) (SERT in RBL-2H3 cells; anisomycin 1 μm, fostriecin 5 nM, NECA 1 μm, 10 min): did not impact the binding | blockade of NECA-induced enhancement of SERT surface density (SERT in RBL-2H3 cells; concentration that completely blocks anisomycin stimulation): fails to block | 5-HT uptake at higher concentrations [2]: inhibit basal 5-HT uptake | blockade of anisomycin-stimulated 5-HT uptake / SERT activity [2]: completely blocks

CNCCNS(=O)(=O)c1cccc2cnccc12 [H8, N-[2-(methylamino)ethy]-5-isoquinoline sulfonamide]
antagonist sensitivity of stimulated 5-HT transport [3]: sensitive to H8 | total [125I]RTI-55 binding (hSERT [4]): no effects on total binding | blockade of anisomycin-stimulated 5-HT uptake [5]: failed to attenuate | blockade of 8BrcGMP-induced reduction in surface density [6]: completely blocked | antagonism of 8BrcGMP stimulation of 5-HT transport (hSERT [1]): completely antagonized | blockade of NECA-induced 5-HT uptake ([2]; H8 0.1 μm, DT-2 1.0 μm): abolish | blockade of 8-Br-cGMP stimulation of SERT [2]: blocked | blockade of anisomycin-stimulated 5-HT uptake / SERT activity [2, 8]: failed to attenuate

C[N+](C)(C)CCSS(C)(=O)=O [MTSET, [2-(Trimethylammonium)ethyl]methanethiosulfonate]
blockade of anisomycin-stimulated 5-HT uptake / SERT activity [2]: abolished

O=c1onc2cnc3ccccc3n12 [ODQ, 1H-(1,2,4)-oxadiazolo[4,3-a]quinoxalin-1-one]
blockade of AR stimulation of SERT [7]: completely abolished | blockade of anisomycin-stimulated 5-HT uptake [5]: neither agent attenuated anisomycin stimulation | blockade of anisomycin-stimulated 5-HT uptake / SERT activity [2]: neither agent attenuated anisomycin stimulation | blockade of NECA-induced 5-HT uptake ([2]; H8 0.1 μm, DT-2 1.0 μm): abolish

YGRKKRRQRRRPP-LRK5H-amide [DT-2]
sensitivity of 8-bromo-cGMP-induced 5-HT transport to PKG antagonist [5]: sensitive | blockade of anisomycin-stimulated 5-HT uptake [5]: failed to attenuate | blockade of NECA-induced 5-HT uptake ([2]; H8 0.1 μm, DT-2 1.0 μm): abolish | blockade of 8-Br-cGMP stimulation of SERT [2]: blocked | blockade of anisomycin-stimulated 5-HT uptake / SERT activity [2, 8]: failed to attenuate

OO [H2O2, hydrogen peroxide]
stimulation of 5-HT transport activity [2]: stimulated 5-HT transport to a level comparable with 1 μm anisomycin

CCc1nc(-c2ccc(OC)cc2)[nH]c1-c1ccncc1 [SB202474]
blockade of anisomycin-stimulated 5-HT uptake / SERT activity [2]: lacked antagonistic activity

bisindolylmaleimide [BIM]
blockade of β-PMA downregulation (hSERT [1]; BIM 1 μM): blocked
